# Results: the METLIN SMRT retention time set (Domingo-Almenara et al. 2019)
# Experiment: gradient 5% acetonitrile 3 min, to 50% in 2 min, to 85% in 15 min, held 3 min, 100 µL/min
# Settings: column: Zorbax Extend-C18 2.1 x 50 mm; eluents: water / acetonitrile, 0.1% formic acid
# Summary of the method: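 Each retention time is based on an adduct peak selected computationally and verified by manual inspection. Measurements used HPLC–quadrupole time-of-flight mass spectrometry in positive and negative ionization mode on mixtures of ~100 pure standards. Chromatography ran on a Zorbax Extend-C18 column (2.1 × 50 mm, 1.8 μm) at 100 μL/min with water and acetonitrile, each containing 0.1% formic acid, and dead and dwell volumes of 40 μL and 900 μL.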
compound,measurement,value
CN1CCCc2cc(C(=O)NCc3cccnc3)sc21,RP-LC retention time,592 s
COc1ccccc1-c1nc(-c2ccc3nnn(C(C)C)c3c2)no1,RP-LC retention time,962 s
COc1ccc(NC(=O)c2noc3c2CCCCC3)cc1,RP-LC retention time,989 s
CC(C)n1c(CC2CCN(C(=O)c3ccccc3Cl)C2)nc2cccnc21 (stereo not drawn),RP-LC retention time,622 s
CCCNC(=O)C1CCCN(c2ccc(SCC(=O)NCc3ccc(C(F)(F)F)cc3)nn2)C1 (stereo not drawn),RP-LC retention time,700 s
C1CCC(NC2=NCCO2)CC1,RP-LC retention time,615 s
COc1ccc(NC(=O)c2cc(C(C)C)n3nccc3n2)cc1,RP-LC retention time,1040 s
COC(=O)c1ccc(NC(=O)N2CCC(n3cnc4cccnc43)CC2)cc1,RP-LC retention time,652 s
COc1ccc(OC)c(NC(=O)Cc2cccn2-c2ccc(Cl)cc2)c1,RP-LC retention time,1080 s
COCC(=O)N(C1CCOCC1)C1CCN(S(=O)(=O)c2ccccc2)CC1,RP-LC retention time,727 s
O=C(O)CN1C(=O)CN=C(c2ccccn2)c2cc(Cl)ccc21,RP-LC retention time,696 s
CCN1CCn2cc(S(=O)(=O)Nc3cc(OC)ccc3OC)cc2C1=O,RP-LC retention time,719 s
O=C(Cn1nc(Cc2cccnc2)c2ccccc2c1=O)N1CC=C(c2ccccc2)CC1,RP-LC retention time,680 s
COc1ccc(Nc2c(-c3ccccc3)nc3cnc(Br)cn23)cc1OC,RP-LC retention time,856 s
COCCNC(=O)CSc1cc(N2CCN(c3ccc(OC)cc3)CC2)ncn1,RP-LC retention time,662 s
O=S(=O)(c1ccccc1Cl)N1CC(c2nc(Cc3ccccc3)no2)C1,RP-LC retention time,951 s
O=C(Nc1ccc2c(c1)CCC2)c1ccnc(N2CCNC(c3ccccc3)C2)c1 (stereo not drawn),RP-LC retention time,742 s
O=C(NC1CCCC1)N1CCN(c2nc3ccccc3n(Cc3ccccc3)c2=O)CC1,RP-LC retention time,997 s
Cc1cc2n(n1)CCC(=O)N2CCCC(=O)NCCCN1CCCCCC1,RP-LC retention time,570 s
O=c1[nH]cc(Cl)cc1Cl,RP-LC retention time,662 s
CSc1ccc(-c2nc3cccc(C)n3c2Nc2ccc(Cl)cc2)cc1,RP-LC retention time,788 s
CC1=C(c2ccccc2)S(=O)(=O)N=C1N1CCCN(C(=O)Cn2ccnc2C)CC1,RP-LC retention time,589 s
Cc1ccc(NC(=O)C2CCN(S(=O)(=O)c3cc(C(=O)N4CCC(C)CC4)n(C)c3)CC2)nc1,RP-LC retention time,705 s
CC1CCN(C(=O)C2=CN(c3ccc(N(C)C)cc3)c3ccccc3S2(=O)=O)CC1,RP-LC retention time,978 s
CCC(C(=O)N1CCN(c2ccccn2)CC1)n1nc(C)c2nn(-c3ccccc3)c(C)c2c1=O (stereo not drawn),RP-LC retention time,669 s
CC1CCN(c2ccc(CNc3nc4ccncc4n(C)c3=O)cc2)CC1,RP-LC retention time,559 s
CNC(=O)C(=O)Nc1ccc(N(C)C)cc1,RP-LC retention time,486 s
COc1cccc(N2CCN(C(=O)c3ccc4c(c3)NC(=O)C3CCCCN43)CC2)c1 (stereo not drawn),RP-LC retention time,592 s
Cc1c(C(=O)Nc2nccs2)nnn1-c1ccc2noc(-c3ccc(Cl)cc3)c2c1,RP-LC retention time,1020 s
Cc1cc(C(=O)N2CC(Oc3ccc(-c4nc(-c5ccccc5)no4)cc3)C2)n(C)n1,RP-LC retention time,1060 s
CCc1ccc(C2=C(C)C(N3CCCN(C(=O)C4CCC4)CC3)=NS2(=O)=O)cc1,RP-LC retention time,875 s
Cn1nccc1-c1cccc(-c2noc(-c3ccc(Cl)cc3)n2)c1,RP-LC retention time,1250 s
CCOC(=O)Cc1ccc(NC(=O)N2CCc3cn(C)c4cccc(c34)C2)cc1,RP-LC retention time,749 s
CCOC(=O)c1ccccc1NC(=O)N1CCC(C(=O)NCc2csc(-c3ccccc3)n2)CC1,RP-LC retention time,993 s
CCn1c(=O)c(N2CCC(NC(=O)Nc3cc(C)ccc3C)CC2)nc2cccnc21,RP-LC retention time,993 s
Cc1ccc(S(=O)(=O)N2CCC(n3cnnc3C)CC2)cc1C,RP-LC retention time,704 s
CCOC(=O)c1c(S(=O)(=O)N2CCC(C(=O)Nc3ccc(C)c(F)c3)CC2)c(C)n(C)c1C,RP-LC retention time,924 s
CCOC(=O)N1CCN(c2ncc(C(=O)Nc3ccc(OC)cc3)c(N)n2)CC1,RP-LC retention time,679 s
CCc1ccc(C2=C(C)C(N3CCCN(C(=O)NC(C)CC)CC3)=NS2(=O)=O)cc1 (stereo not drawn),RP-LC retention time,866 s
Cc1ccc(-c2cc(C(=O)Nc3ccc4c(c3)CCC(=O)N4)c3ccccc3n2)cc1C,RP-LC retention time,949 s
CCC(=O)Nc1ccc(-n2cnc(C(=O)NCc3ccc(F)cc3Cl)c2)nc1,RP-LC retention time,762 s
CC(C)c1cccc(NC(=O)Cn2c(=O)cc(-c3nc(C4CC4)no3)c3ccccc32)c1,RP-LC retention time,1080 s
CCc1cc(=O)n(CC(=O)NCCOC)c(N2CCOCC2)n1,RP-LC retention time,577 s
CCOC(=O)c1c(C)[nH]c(C)c1S(=O)(=O)N1CCC(C(=O)NC2CCCC2)CC1,RP-LC retention time,735 s
Cc1ccc(-c2nc3ncccn3c2Nc2ccc(C)c(Cl)c2)cc1,RP-LC retention time,910 s
Cc1ccc(C(C)C)c(OCC(=O)Nc2ccc(S(=O)(=O)Nc3cc(C)on3)cc2)c1,RP-LC retention time,1000 s
c1ccc(OCc2nc(-c3ccc(-c4csc(C5CC5)n4)cc3)no2)cc1,RP-LC retention time,1330 s
CCc1cccc(NC(=O)c2sc(-c3cn(C)c4ncccc34)nc2C)c1,RP-LC retention time,1040 s
COC(=O)c1c(NCCC(C)C)c2cc(F)ccc2[nH]c1=O,RP-LC retention time,792 s
CCSc1nc2ccc(NS(=O)(=O)c3ccccc3Cl)cc2s1,RP-LC retention time,1030 s
O=C(Cn1cnc2cc3c(cc21)OCCO3)Nc1cccc(C(F)(F)F)c1,RP-LC retention time,697 s
Cc1cccc(S(=O)(=O)N2CCC(c3nc(C(=O)N(C)C)c(C)o3)CC2)c1,RP-LC retention time,826 s
Cc1ccc(NC(=O)Cn2c(NCCN3CCOCC3)nc3ccccc32)cc1,RP-LC retention time,556 s
CCOC(=O)CCNC(=O)N1c2ccccc2CC1c1nc(C2CC2)no1 (stereo not drawn),RP-LC retention time,853 s
Cc1cc2c(cc1CNC(=O)Cn1c(C(F)(F)F)nc3cc4c(cc31)OCCO4)OCCCO2,RP-LC retention time,851 s
CCCS(=O)(=O)c1nc2ccc(NS(=O)(=O)c3ccc(F)cc3Cl)cc2s1,RP-LC retention time,973 s
Cn1nc(-c2nnc(-c3ccc(F)cc3)o2)c2c1CCN(C(=O)Nc1ccccc1Cl)C2,RP-LC retention time,892 s
OCCNCCNCc1ccc(-c2cccc(Cl)c2)o1,RP-LC retention time,568 s
Cc1nnc(-c2ccc3ccn(CC(=O)Nc4ccc(C)c(C)c4)c3c2)o1,RP-LC retention time,882 s
Cc1cc(C(=O)NCc2cc(F)cc(F)c2)nc2cc(-c3cccs3)nn12,RP-LC retention time,1120 s
CCc1cc(=O)n(CC(=O)NCCC2=CCCCC2)c(N)n1,RP-LC retention time,642 s
CC(C)NC(=O)Cn1c2ccccc2n2c(=O)cc(-c3ccc(F)cc3)nc12,RP-LC retention time,702 s
CCOC(=O)N1CCN(C(=O)c2ccc(S(=O)(=O)NCc3cccs3)o2)CC1,RP-LC retention time,729 s
Cc1ccc(F)cc1NC(=O)Cn1nc2nc(N3CCCC(C)C3)ccn2c1=O (stereo not drawn),RP-LC retention time,804 s
COc1ccc(C(=O)N2CCCC2c2nc(-c3ccc(OC)c(OC)c3)no2)c(OC)c1 (stereo not drawn),RP-LC retention time,866 s
COc1ccc2c(c1)C1(CCN(C(=O)NCCC(C)C)C1)C(=O)N2 (stereo not drawn),RP-LC retention time,716 s
COc1ccc(-n2c(=O)n(C)c(=O)c3cc(C(=O)NCc4cccc(OC)c4)cnc32)cc1,RP-LC retention time,833 s
CC(O)(CNC(=O)C(=O)Nc1cccc(N2CCCCC2=O)c1)c1ccccc1 (stereo not drawn),RP-LC retention time,668 s
COc1cc2c(cc1CNC(=O)Cn1cc(C(C)=O)c3ccccc31)OCCCO2,RP-LC retention time,771 s
Fc1ccc(-c2nc(-c3cccc(-c4ccn[nH]4)c3)no2)cc1,RP-LC retention time,1000 s
CC1(C(=O)NC2CC2)CC(c2ccccc2)=NO1 (stereo not drawn),RP-LC retention time,749 s
Cc1nn(CC(=O)NCc2cc(F)cc(F)c2)c(=O)c2nc(-c3ccccc3)sc12,RP-LC retention time,891 s
CNC(=O)C1CCCN(c2nc3ncn(CC(=O)NCCC4=CCCCC4)c(=O)c3s2)C1 (stereo not drawn),RP-LC retention time,685 s
Cc1[nH]c(/C=C2\C(=O)Nc3ccccc32)c(C)c1CCC(=O)O,RP-LC retention time,820 s
COc1ccccc1CCNC(=O)C1CN(C(=O)c2ccc(F)c(F)c2)C1,RP-LC retention time,731 s
CCOc1ccc(C(=O)N(c2ccccc2CC)C2C=CS(=O)(=O)C2)cc1OCC (stereo not drawn),RP-LC retention time,840 s
CCOc1ccccc1-c1noc(Cn2c(=O)n(-c3ccc(OC)cc3)c(=O)c3sccc32)n1,RP-LC retention time,962 s
Cc1cc(Cl)ccc1OCc1nc(-c2ccc(NS(C)(=O)=O)cc2)no1,RP-LC retention time,1060 s
COc1ccc(Cl)cc1NC(=O)c1cc2c(=O)oc3ccccc3c2n1C,RP-LC retention time,1110 s
COC(=O)c1ncn2c1C(=O)N(Cc1ccccc1Cl)C(C)(C(=O)NCc1ccccc1)C2 (stereo not drawn),RP-LC retention time,762 s
COc1cc(NC(=O)N2CCN(C)c3ncccc32)cc(OC)c1OC,RP-LC retention time,584 s
COc1ccc(NS(=O)(=O)c2cc(-c3[nH]ncc3C(=O)N3CCCC3)oc2C)c(C)c1,RP-LC retention time,707 s
COc1ccccc1-n1ccn(Cc2nc(-c3cccc(F)c3)no2)c(=O)c1=O,RP-LC retention time,861 s
O=C(CSc1ncnc2c1cnn2-c1ccc(Cl)cc1)NCc1ccco1,RP-LC retention time,954 s
Cc1cc(C)c(S(=O)(=O)N2CCCC2c2nc(-c3ccc(Cl)cc3)no2)c(C)c1 (stereo not drawn),RP-LC retention time,1360 s
CCn1ccc(C(=O)N2CCC(c3noc(-c4cnccn4)n3)C2)n1 (stereo not drawn),RP-LC retention time,634 s
COc1ccc(-c2nc(C3CC(=O)N(c4ccc(OC)c(OC)c4)C3)no2)cc1 (stereo not drawn),RP-LC retention time,1180 s
COc1ccc(-c2csc(C(=O)n3nc(C)cc3C)c2-n2cccc2)cc1,RP-LC retention time,1300 s
